Where a name gives a salt, the structure may show the parent alone.
Columns and labels:
Format in all cases: cell-based
[1] = system: HepG2 cells; assay: Measurement of triglyceride synthesis inhibitory ability; conditions: for Triglyceride (100 μM) aver.: 100 μM compound; for Triglyceride (100 μM) aver. / Triglyceride (500 μM) aver.: 24 hours, HepG2 cells, content of triglyceride formed, lower value = stronger inhibition; for Triglyceride (500 μM) aver.: 500 μM compound
Method: (§1) 2 mM metformin was used as a comparative compound for each of the plates (control group).
HepG2 cells (ATCC: American Type Culture Collection) were cultured in 1% serum-containing media (DMEM (Gibco), FBS (Gibco)) for 24 hours, and then treated with 100 μM or 500 μM of each of the compounds prepared in Examples for 24 hours. Then, the cells were disrupted with a lysis solution (0.1 M potassium phosphate, pH 7.4, 0.05 M NaCl, 5 mM cholic acid, 0.1% Triton X-100). To the disrupted cells was added the same volume of a reaction solution (0.76 U/ml of a glycerol kinase (Asan Pharmaceutical Co., Ltd.), […] of a peroxidase (Asan Pharmaceutical Co., Ltd.), 22.2 U/ml of a glycerol oxidizing agent (Asan Pharmaceutical Co., Ltd.), and 300 μM of Amplex red as a fluorescent factor (Molecular Probe)), which was allowed to react at 37° C. for 30 minutes. After completion of the reaction, the content of triglyceride formed in the cell lysates was measured at a wavelength of 560/590 nm (ex/em) using a fluorescence microscope.
A lower measurement value means an increased triglyceride synthesis inhibitory ability.

[2] = system: HepG2 cells; assay: Measurement of gluconeogenesis inhibitory ability; conditions: Homo sapiens, HepG2, 24 h, 100 μM compound, 24 hours, HepG2 cells; content of glucose formed from 14C-lactate; lower value = stronger inhibition; read-out: Gluconeogenesis inhibition (100 μM) aver.
Method: as §1
HepG2 cells (ATCC: American Type Culture Collection) were cultured in 10% serum-containing high glucose media, transferred to no serum-containing low glucose media (DMEM (Gibco), FBS (Gibco)), and then treated with 100 μM of each of the compounds for 24 hours. Then, the cells were treated with 0.5 μCi ^14C-lactate (Amersham Pharmacia) and 10 mM L-lactate (Sigma), and cultured for 4 hours. After cultivation, the media were removed therefrom, and the cells were washed with PBS, treated with 0.1N NaOH and kept at room temperature for 1 hour. Then, the cells were neutralized with 1N HCl, and the content of glucose formed in the cells was measured with a liquid scintillation counter.
A lower measurement value means an increased gluconeogenesis inhibitory ability.

[3] = system: HepG2 cells; assay: Measurement of cholesterol synthesis inhibitory ability; conditions: 24 hours, HepG2 cells, content of cholesterol formed, lower value = stronger inhibition; for Cholesterol (100 μM) aver.: 100 μM compound; for Cholesterol (500 μM) aver.: 500 μM compound
Method: as §1
A cholesterol synthesis inhibitory ability, which is an important function of AMPK (AMP-activated protein kinase), was measured using HepG2 cells (ATCC: American Type Culture Collection) as a hepatic cell model according to the following procedure.
The hepatic cell model HepG2 cells were cultured in 1% serum-containing media (DMEM (Gibco), FBS (Gibco)) for 24 hours, and then treated with 100 μM or 500 μM of each of the compounds prepared in Examples for 24 hours. Then, the cells were disrupted with a lysis solution (0.1 M potassium phosphate, pH 7.4, 0.05 M NaCl, 5 mM cholic acid, 0.1% Triton X-100 (Sigma)). To the disrupted cells was added the same volume of a reaction solution (2 U/ml of a cholesterol oxidizing agent, 2 U/ml of a peroxidase, 0.2 U/ml of a cholesterol esterase, and 300 μM of Amplex red as a fluorescent factor (Molecular Probe)), which was allowed to react at 37° C. for 30 minutes. After completion of the reaction, the content of cholesterol formed in the cell lysates was measured at a wavelength of 560/590 nm (ex/em) using a fluorescence microscope.
A lower measurement value means an increased cholesterol synthesis inhibitory ability.

SMILES	Triglyceride (100 μM) aver. [1]	Triglyceride (500 μM) aver. [1]	activity at 100 µM [2] [%]	Cholesterol (100 μM) aver. [3]	Cholesterol (500 μM) aver. [3]	effect in inhibiting triglyceride synthesis better than that of the control group ([1]; 100 μM compound versus 2 mM metformin)
Cl.N=C(N)NC(=NCc1ccc(Br)cc1)NCc1ccc2c(c1)OCO2 [Example 36, N1-benzo[1,3]dioxol-5-ylmethyl-N2-(4-bromobenzyl)biguanide hydrochloride]	61.93	24.04	92.9	25.31	40.17	
N=C(N)NC(=NCCc1ccccc1)NCc1ccc2c(c1)OCO2 [Example 7, N1-benzo[1,3]dioxol-5-ylmethyl-N2-(phenethyl)biguanide hydrochloride]	77.1	11.8	118	23.6	12.9	
COc1cc(N=C(NCc2ccc3c(c2)OCO3)NC(=N)N)cc(OC)c1.Cl [Example 26, N1-benzo[1,3]dioxol-5-ylmethyl-N2-(3,5-dimethoxyphenyl)biguanide hydrochloride]	86.94	21.88	87.6	61.86	17.53	
Cl.N=C(N)NC(=NC12CC3CC(CC(C3)C1)C2)NCc1ccc2c(c1)OCO2 [Example 27, N1-benzo[1,3]dioxol-5-ylmethyl-N2-(1-adamantyl)biguanide hydrochloride]	67.58	11.48	31.4	64.82	45.24	
COc1ccc(OC)c(N=C(NCc2ccc3c(c2)OCO3)NC(=N)N)c1.Cl [Example 12, N1-benzo[1,3]dioxol-5-ylmethyl-N2-(2,5-dimethoxyphenyl)biguanide hydrochloride]	84.10		27.4	58.53		
Cl.N=C(N)NC(=Nc1cccc(Br)c1)NCc1ccc2c(c1)OCO2 [Example 41, N1-benzo[1,3]dioxol-5-ylmethyl-N2-(3-bromophenyl)biguanide hydrochloride]	25.51	19.79	0	23.61	32.23	
Cl.N=C(N)NC(=Nc1ccccc1)NCc1ccc2c(c1)OCO2 [Example 45, N1-benzo[1,3]dioxol-5-ylmethyl-N2-phenyl biguanide hydrochloride]	96.12	35.45	117	77.21	23.24	
CC(C)N=C(NCc1ccc2c(c1)OCO2)NC(=N)N.Cl [Example 22, N1-benzo[1,3]dioxol-5-ylmethyl-N2-isopropyl biguanide hydrochloride]	78.51	60.13	83	63.99	34.97	
Cl.N=C(N)NC(=NC1CCCCC1)NCc1ccc2c(c1)OCO2 [Example 2, N1-benzo[1,3]dioxol-5-ylmethyl-N2-cyclohexyl biguanide hydrochloride]	108.9	26.9	95.2	43.7	15.6	
Cl.N=C(N)NC(=Nc1ccc(Oc2ccccc2)cc1)NCc1ccc2c(c1)OCO2 [Example 30, N1-benzo[1,3]dioxol-5-ylmethyl-N2-(4-phenoxyphenyl)biguanide hydrochloride]	18.22	3.05	3.04	21.94	40.34	
COc1cc(N=C(NCc2ccc3c(c2)OCO3)NC(=N)N)cc(OC)c1OC.Cl [Example 24, N1-benzo[1,3]dioxol-5-ylmethyl-N2-(3,4,5-trimethoxyphenyl)biguanide hydrochloride]	80.30	60.08	88.7	65.36	31.14	
CCCCCCN=C(NCc1ccc2c(c1)OCO2)NC(=N)N.Cl [Example 6, N1-benzo[1,3]dioxol-5-ylmethyl-N2-hexyl biguanide hydrochloride]	97.8	70.3	104	31.8	19.1	
CCN=C(NCc1ccc2c(c1)OCO2)NC(=N)N.Cl [Example 1, N1-benzo[1,3]dioxol-5-ylmethyl-N2-ethyl biguanide hydrochloride]	98.6	49.6	89.8	66.3	50.8	
Cl.N=C(N)NC(=NCc1ccc(F)c(F)c1)NCc1ccc2c(c1)OCO2 [Example 44, N1-benzo[1,3]dioxol-5-ylmethyl-N2-(3,4-difluorobenzyl)biguanide hydrochloride]	78.42	56.79	103	74.32	49.84	
COc1ccc(CN=C(NCc2ccc3c(c2)OCO3)NC(=N)N)cc1.Cl [Example 37, N1-benzo[1,3]dioxol-5-ylmethyl-N2-(4-methoxybenzyl)biguanide hydrochloride]	62.82	58.60	104	60.36	32.20	at least 20 times
Cl.N=C(N)NC(=Nc1ccc(Br)cc1)NCc1ccc2c(c1)OCO2 [Example 32, N1-benzo[1,3]dioxol-5-ylmethyl-N2-(4-bromophenyl)biguanide hydrochloride]	35.08	17.38	4.42	11.62	20.56	
CCCN=C(NCc1ccc2c(c1)OCO2)NC(=N)N.Cl [Example 16, N1-benzo[1,3]dioxol-5-ylmethyl-N2-propyl biguanide hydrochloride]	32.56		33.1	38.66		
Cl.N=C(N)NC(=Nc1ccc2c(c1)Cc1ccccc1-2)NCc1ccc2c(c1)OCO2 [Example 13, N1-benzo[1,3]dioxol-5-ylmethyl-N2-(2-fluorenyl)biguanide hydrochloride]	9.22		2.15	31.42		
N=C(N)NC(=Nc1cccc2ccccc12)NCc1ccc2c(c1)OCO2 [Example 3, N1-benzo[1,3]dioxol-5-ylmethyl-N2-(1-naphthyl)biguanide hydrochloride]	3.74	−6.97	3.27	8.11	28.8	
CC(C)(C)c1ccc(N=C(NCc2ccc3c(c2)OCO3)NC(=N)N)cc1.Cl [Example 33, N1-benzo[1,3]dioxol-5-ylmethyl-N2-(4-t-butylphenyl)biguanide hydrochloride]	27.40	7.08	2.35	20.42	30.52	

Reference: patent US8642647B2, “N1-benzo[1,3]dioxol-5-ylmethyl-N2-substituted biguanide derivative, preparation method thereof, and pharmaceutical composition containing same” (Hanall Biopharma Co., Ltd., priority 2008, dated 2014)
